Measured values: US20030083271A1, “Topoisomerase I selective cytotoxic sugar derivatives of indolopyrrolocarbazoles” (priority 2001, published 2003)

Tests used:
[1] = test system: P388/CPT45 cells; conditions: P388/CPT45 versus parental P388; cited from earlier work
[2] = test system: P388/CPT45 cells; assay: Cytotoxicity in camptothecin-resistant P388/CPT45 cells relative to parental P388 (selectivity index R/S); assay type: cell-based, murine; conditions: IC50 P388/CPT45 cells divided by IC50 parental P388 cells
From the text: The present invention includes fluoro sugar and other sugar derivatives of indolopyrrolocarbazoles of formula (I), as defined above. […] Most importantly, the instant invention describes topo I active compounds, related to compounds disclosed in WO 98/07433 and co-pending U.S. application, Ser. No. 08/914566 (both herein incorporated by reference), which display a surprising and unexpected selectivity index when evaluated for cytotoxicity in certain cell lines which express normal levels of topo I required for cell proliferation, compared with cell lines that are deficient in or underexpress topo I. Said “selectivity index” (R/S) was generated by dividing the cytotoxic IC50 of a particular compound against a camptothecin-resistant murine leukemia cell line, P388/CPT45, by the IC50 generated when using the parent P388 cell line. […] A level of selectivity was judged to be advantageous and beneficial in, for example, modulating potential undesirable side effects and/or toxicity. The compounds of the present invention were selected from compounds generically disclosed in WO 98/07433 and co-pending U.S. patent application, Ser. No. 08/914566, on the basis of an unexpected and unpredictable selectivity index (see Table I and II). […] Simple changes in the substitution of the sugar portion or the indolopyrrolocarbazole portion of the present invention will change the selectivity. This change in selectivity is not predictable by one skilled in the art.
(§1) Similarly, P338 murine leukemia cells were maintained in RPMI 1640 supplemented with 20% fetal bovine serum and 10 μM 2-mercaptoethanol. A camptothecin resistant subline, P388/CPT45, was selected for resistance to camptothecin and is over 1000-fold resistant to this compound (Woessner, et al. Oncol. Res. 1992, 4, 481-488).
(§2) In vitro cytotoxicity was assessed in tissue culture cells by MTS (3-(4,5-dimethylthiazol-2-yl)-5-(3-carboxymethoxyphenyl)-2-(4-sulphenyl)-2H-tetrazolium, inner salt) assay (Riss and Moravec, Mol. Biol. Cell 1992, 3 (Suppl.), 184a). Cells were plated at 8,000 cell/well in 96 well microtiter plates and 24 hours later serial dilutions of the test compounds were made and added to the cells. The cells were incubated at 37° C. for 72 hours, at which time the tetrazolium dye, MTS at 333 μg/ml (final concentration), in combination with the electron coupling agent phenazine methosulfate at 25 μM (final concentration) was added. A dehydrogenase enzyme in live cells reduces the MTS to a form that absorbs light at 492 nm which can be quantitated spectrophotometrically. The greater the absorbance the greater the number of live cells. The results are expressed as an IC50, which is the drug concentration required to inhibit cell proliferation (i.e., absorbance at 492 nm) to 50% of that of untreated control cells.
The selectivity index (R/S) is defined as the ratio obtained by dividing the IC50 value obtained using P388/CPT45 cells by that obtained using parental P388 cells. The R/S ratios used to determine the relative topo I selectivity of selected compounds of this invention are shown below in Table I.

[3] = test system: P388 murine leukemia cells; assay: In vitro cell-based cytotoxicity, parental P388 cells; conditions: Mus musculus, 72 h, median cytotoxic concentration, 3 days continuous exposure
Experimental: The proliferation inhibition activity against the murine P388 cell line was measured as follows. Evaluation of a soluble tetrazolium/formazan assay for cell growth and drug sensitivity in culture, using human and other tumor cell lines, was done according to the procedure described in Cancer Res. 1988, 48, 4827-4833. Cells were plated at 4000 cells/well in 96 well microtiter plates and 24 h later drugs were added and serially diluted. The cells were incubated at 37° C. for 72 h, at which time a tetrazolium dye, XTT, containing phenazine methosulfate was added. A dehydrogenase enzyme in live cells reduced the XTT to a form that absorbs light at 450 nm, which could be quantitated spectrophotometrically. The greater the absorbance the greater the number of live cells. The results are expressed as an IC50, which is the drug concentration required to inhibit cell proliferation (i.e., absorbance at 450 nm) to 50% of that of untreated control cells.
as §1, §2
The cytotoxic activity for certain compounds of the present invention, in both parental P388 and the camptothecin-resistant P388/CPT45 cell lines are shown below in Table I.

[4] = target: T1, purified human topoisomerase I (Homo sapiens, UniProt P11387); assay: Topoisomerase I-mediated single strand DNA break induction (in vitro); assay type: biochemical; conditions: median effect concentration for inducing single-strand breaks in the DNA substrate; read-out: Topo I EC50
T1 construct: purchased Topogen
T1 sequence (P11387 1-765): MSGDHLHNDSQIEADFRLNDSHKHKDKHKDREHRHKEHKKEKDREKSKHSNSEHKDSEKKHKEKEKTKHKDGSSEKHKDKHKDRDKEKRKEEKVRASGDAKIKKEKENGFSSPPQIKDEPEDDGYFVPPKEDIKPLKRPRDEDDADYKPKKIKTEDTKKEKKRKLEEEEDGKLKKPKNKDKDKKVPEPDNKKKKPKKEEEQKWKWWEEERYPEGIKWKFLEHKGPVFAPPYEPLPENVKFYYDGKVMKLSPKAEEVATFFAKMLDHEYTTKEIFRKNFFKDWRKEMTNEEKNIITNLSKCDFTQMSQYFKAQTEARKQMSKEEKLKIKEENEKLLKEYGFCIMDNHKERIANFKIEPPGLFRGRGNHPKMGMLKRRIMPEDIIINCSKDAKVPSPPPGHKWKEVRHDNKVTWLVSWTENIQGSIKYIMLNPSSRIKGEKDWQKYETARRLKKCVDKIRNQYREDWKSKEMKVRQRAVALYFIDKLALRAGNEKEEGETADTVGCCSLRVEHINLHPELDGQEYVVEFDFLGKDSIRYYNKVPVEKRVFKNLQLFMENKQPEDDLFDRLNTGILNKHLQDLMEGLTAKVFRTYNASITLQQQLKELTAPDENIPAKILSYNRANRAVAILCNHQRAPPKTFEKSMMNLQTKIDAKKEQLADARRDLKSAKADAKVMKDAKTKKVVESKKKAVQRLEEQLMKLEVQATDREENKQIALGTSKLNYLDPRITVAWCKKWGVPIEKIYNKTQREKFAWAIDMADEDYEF
Experimental: Topoisomerase I activity was measured as described below. The procedure for assaying compound-induced, topoisomerase I-mediated single strand breaks in DNA was essentially that described by Hsiang, et al., (J. Biol. Chem. 1985, 260, 14873-14878). Samples dissolved in 100% DMSO as either […] or 10 mg/ml solutions, unless otherwise stated, were diluted in Tris-EDTA buffer. Marine bacteriophage PM2 DNA (Boehringer Mannheim) was also diluted in Tris-EDTA buffer to a concentration of 0.02 μg/μl. Different dilutions of the compound being evaluated were mixed with diluted DNA and this mixture was added to […] (one unit of enzyme activity is defined as the amount capable of relaxing 100 ng of supercoiled DNA in approximately 30 minutes at 37° C.) aliquots of purified human topoisomerase I (Topogen) in 2X reaction buffer to start the reaction. The compound-DNA-enzyme mixture was incubated for 30 minutes at 37° C. before stopping the reaction with warm stop buffer containing sodium dodecyl sulfate and proteinase K (Sigma). These mixtures were allowed to incubate at 37° C. for another 10 minutes, at which time the mixtures were removed from the waterbath and extracted with a 24:1 mixture of chloroform/isoamyl alcohol. Following centrifugation, aliquots of the aqueous phases were placed in wells of a 0.9% agarose (SeaKem) gel in Tris-borate buffer containing 0.5 μg/ml of ethidium bromide and subjected to electrophoresis for 15 hours to separate the different topological isomers and nicked and broken DNAs. After destaining the gel in water, the ethidium bromide stained DNA reaction products were visualized by exposing the gel to UV irradiation. Negatives of the photographs of the irradiated gels were scanned with a densitometer and areas under the peaks were calculated in order to obtain percent single strand DNA break formation for each sample. A median effective concentration (EC50) was obtained for each compound by interpolation between points of the resulting dose-effect curve which defines the potency of the compound for its effect in inducing topoisomerase I-mediated single strand breaks in DNA. The topoisomerase I activities for certain compounds of the present invention are shown below in Table I.

[5] = test system: HT-29 colon carcinoma; assay: In vivo antitumor activity, HT-29 xenograft; set-up: species or system Balb/c athymic (nude) female mice
Experimental: Compounds: Examples of this invention were administered in an appropriate vehicle such as cremophor/ethanol/water (10%/10%/80%), in normal saline, water/carboxymethylcellulose vehicle.
All compounds were tested at several dose levels, with attempts each time to achieve their maximum tolerated dose (MTD). […] The optimal dose (OD) was the dose producing the best therapeutic effect, and was usually, but not always, synonymous with the MTD.
Tumors: Human tumors (HCT-116 and HT-29 colon carcinomas) were grown as xenografts in Balb/c athymic (nude) female mice. Antitumor assays. All tumors were implanted subcutaneously (sc) as 3-4mm fragments using a 13 gauge trochar. There were generally eight mice per treatment and control group. When treatment was delayed until tumors had obtained a certain size (weight), referred to as a staged tumor experiment (expt.), tumor-bearing mice were selected so that their tumors fell within a limited range of sizes for the particular expt.
Tumors were measured by calipers, and tumor weight calculated by the formula length (mm) times (×) width (mm)^2/2=tumor weight (mg). The median time (in days) to reach a predetermined tumor target size (for example, 500 mg) for untreated, control (C) mice relative to the time to reach the same target size for treated (T) mice, was calculated as a T-C value. T-C values were divided by the tumor volume doubling time (TVDT), and multiplied by 3.32, to yield a gross log cell kill (LCK) value, [i.e., (T-C)/TVDT×3.32=LCK].
A mouse was considered cured if there was no palpable tumor after a period of time equal to 10×TVDT post-reatment (Rx).

EC50 [4] [nM] | Structure (SMILES) | fold resistance of P388/CPT45 subline [1] | Selectivity Index R/S [2] | IC50 [3] [nM] | LCK (gross log cell kill) ([5]; HT29 sc xenograft in nude mice, at optimal or maximum tolerated dose, CPT-11 run as comparator in same experiment) | MTD (optimal or maximum tolerated dose level tested) ([5]; HT29 xenograft experiment, nude mice) [mpkpi]
– | CC[C@@]1(O)C(=O)OCc2c1cc1n(c2=O)Cc2cc3ccccc3nc2-1 [camptothecin] | over 1000 fold | – | – | – | –
120 | O=C1NC(=O)c2c1c1c3cc(F)c(F)cc3sc1c1c2c2cc(F)c(F)cc2n1[C@@H]1O[C@H](CF)[C@@H](O)[C@H](O)[C@H]1O [Example 8, 13-[6-Dideoxy-6-fluoro-β-D-glucopyranosyl]-2,3,9,10-tetrafluoro-5H,13H-benzo[b]thienyl[2,3-a]pyrrolo[3,4-c]carbazole-5,7(6H)-dione] | – | 119.1 | 52 | – | –
20 | NC[C@H]1O[C@@H](n2c3cc(F)c(F)cc3c3c4c(c5c6cc(F)c(F)cc6sc5c32)C(=O)NC4=O)[C@H](O)[C@@H](O)[C@@H]1F [Example 12, 12-[6-Amino-4,6-dideoxy-4-fluoro-β-D-glucopyranosyl]-2,3,9,10-tetrafluoro-5H,13H-benzo[b]thienyl[2,3-a]pyrrolo[3,4-c]carbazole-5,7(6H)-dione] | – | 131.5 | 2 | – | –

Structure (SMILES) | EC50 [4] [nM] | fold resistance of P388/CPT45 subline [1] | Selectivity Index R/S [2] | IC50 [3] [nM] | LCK (gross log cell kill) ([5]; HT29 sc xenograft in nude mice, at optimal or maximum tolerated dose, CPT-11 run as comparator in same experiment) | MTD (optimal or maximum tolerated dose level tested) ([5]; HT29 xenograft experiment, nude mice) [mpkpi]
O=C1NC(=O)c2c1c1c3cc(F)c(F)cc3sc1c1c2c2cc(F)c(F)cc2n1[C@@H]1O[C@H](CO)C(F)(F)[C@H](O)[C@H]1O [Example 30, 12-[4,4-Difluoro-4-deoxy-β-D-glucopyranosyl]-2,3,9,10-tetrafluoro-5H, 13H-benzo[b]thienyl[2,3-a]pyrrolo[3,4c]carbazole-5,7(6H)-dione] | 10 | – | 575.5 | – | >1.4 | 16
